Measured values from PubChem BioAssay (NCI).
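Following 48 hours of exposure in 96-well plates, responses at five concentrations were used to interpolate endpoints linearly. Definition used: TGI = concentration required for complete inhibition of growth.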

Tests used:
Assay in all cases: NCI-60 cell line screen, 48 h
NCI-H226 lung = test system: NCI-H226 lung
MCF7 breast = test system: MCF7 breast
UACC-257 melanoma = test system: UACC-257 melanoma
ACHN renal = test system: ACHN renal
MDA-N = test system: MDA-N
SK-OV-3 ovarian = test system: SK-OV-3 ovarian
SF-295 CNS = test system: SF-295 CNS
SK-MEL-5 melanoma = test system: SK-MEL-5 melanoma
OVCAR-3 ovarian = test system: OVCAR-3 ovarian
PC-3 prostate = test system: PC-3 prostate
COLO 205 colon = test system: COLO 205 colon
NCI/ADR-RES ovarian = test system: NCI/ADR-RES ovarian
UACC-62 melanoma = test system: UACC-62 melanoma
SK-MEL-28 melanoma = test system: SK-MEL-28 melanoma
OVCAR-5 ovarian = test system: OVCAR-5 ovarian
UO-31 renal = test system: UO-31 renal
NCI-H460 lung = test system: NCI-H460 lung
786-0 renal = test system: 786-0 renal
MOLT-4 leukemia = test system: MOLT-4 leukemia
DU-145 prostate = test system: DU-145 prostate
K-562 leukemia = test system: K-562 leukemia
M14 melanoma = test system: M14 melanoma
TK-10 renal = test system: TK-10 renal
SNB-75 CNS = test system: SNB-75 CNS
A549 NSCLC = test system: A549 NSCLC
IGROV1 ovarian = test system: IGROV1 ovarian
HCT-15 colon = test system: HCT-15 colon
MALME-3M melanoma = test system: MALME-3M melanoma
SK-MEL-2 melanoma = test system: SK-MEL-2 melanoma
HCT-116 colon = test system: HCT-116 colon
SF-539 CNS = test system: SF-539 CNS
SF-268 CNS = test system: SF-268 CNS
CCRF-CEM leukemia = test system: CCRF-CEM leukemia
HT29 colon = test system: HT29 colon
HCC-2998 colon = test system: HCC-2998 colon
SN12C renal = test system: SN12C renal
NCI-H522 lung = test system: NCI-H522 lung
NCI-H23 lung = test system: NCI-H23 lung
HOP-62 NSCLC = test system: HOP-62 NSCLC
T-47D breast = test system: T-47D breast
SR leukemia = test system: SR leukemia
SW-620 colon = test system: SW-620 colon
SNB-19 CNS = test system: SNB-19 CNS
OVCAR-8 ovarian = test system: OVCAR-8 ovarian
HS 578T breast = test system: HS 578T breast
LOX IMVI melanoma = test system: LOX IMVI melanoma
CAKI-1 renal = test system: CAKI-1 renal
A498 renal = test system: A498 renal
KM12 colon = test system: KM12 colon
EKVX NSCLC = test system: EKVX NSCLC
MDA-MB-231 breast = test system: MDA-MB-231 breast
OVCAR-4 ovarian = test system: OVCAR-4 ovarian
RXF 393 renal = test system: RXF 393 renal
MDA-MB-435 = test system: MDA-MB-435

Measured: TGI

COc1ccc(C2C(=O)c3c(OC)cc(OC)cc3OC2c2cccnc2)cc1 (centres undefined)
84.1 µM: SNB-75 CNS
> 100 µM: all other assays above
